Experimental data reported in patent US20030040485A1, “alpha/beta-adrenoceptors blockers and angiotensin converting enzyme inhibitors derived from hydroxyphenyl carboxylic acid and alcohol” (priority 2001, published 2003).

Columns and labels:
[1] = tested on: β2-adrenoceptor (trachea); experiment: β2-adrenoceptor antagonism, trachea, pA2; parameters: species or system rat; details: Schild plot, mean ± SEM of six to eight experiments
Procedure: When the spontaneously beating rate of right atria reached a certain stability, cumulative administration of L-isoproterenol from 1×10^−10˜3×10^−10 M caused the heart rate to increase continuously, and a cumulative dose-response curve was obtained. Then the L-isoproterenol was thoroughly washed off with Kreb's solution to recover the right atria's heart rate stability. After the equilibrum was reached again for at least 60 minutes, different concentrations (10^−7, 10^−6, 10^−5 M) of compounds were added. 30 minutes later, cumulative administration of L-isoproterenol from 1×10^−10˜3×10^−10 M were carried out again, and another new cumulative dose-response curve was obtained. Administration of L-isoproterenol started from concentration 1×10^−10 M, and the concentration was raised 0.5 log each time for a total of six times. Cumulative administration interval was when the previous concentration reached its greatest effect, the next concentration would be immediately given. […] In other groups of rats, after separate administration of test compounds, their pA2 values were obtained.
pA2=−Log KB Log(DRADJ−1)=n log[B]−LogKB

[2] = biological target: T1, angiotensin converting enzyme (ACE) (Rattus norvegicus, UniProt P47820); experiment: ACE inhibitory activity in rat serum (Hycor kit, [3H]-hippuryl-glycyl-glycine); type: biochemical; details: mean of three samples
T1 construct: from tissue; host or cells: rat serum
T1 sequence (P47820 36-1238 limits assumed): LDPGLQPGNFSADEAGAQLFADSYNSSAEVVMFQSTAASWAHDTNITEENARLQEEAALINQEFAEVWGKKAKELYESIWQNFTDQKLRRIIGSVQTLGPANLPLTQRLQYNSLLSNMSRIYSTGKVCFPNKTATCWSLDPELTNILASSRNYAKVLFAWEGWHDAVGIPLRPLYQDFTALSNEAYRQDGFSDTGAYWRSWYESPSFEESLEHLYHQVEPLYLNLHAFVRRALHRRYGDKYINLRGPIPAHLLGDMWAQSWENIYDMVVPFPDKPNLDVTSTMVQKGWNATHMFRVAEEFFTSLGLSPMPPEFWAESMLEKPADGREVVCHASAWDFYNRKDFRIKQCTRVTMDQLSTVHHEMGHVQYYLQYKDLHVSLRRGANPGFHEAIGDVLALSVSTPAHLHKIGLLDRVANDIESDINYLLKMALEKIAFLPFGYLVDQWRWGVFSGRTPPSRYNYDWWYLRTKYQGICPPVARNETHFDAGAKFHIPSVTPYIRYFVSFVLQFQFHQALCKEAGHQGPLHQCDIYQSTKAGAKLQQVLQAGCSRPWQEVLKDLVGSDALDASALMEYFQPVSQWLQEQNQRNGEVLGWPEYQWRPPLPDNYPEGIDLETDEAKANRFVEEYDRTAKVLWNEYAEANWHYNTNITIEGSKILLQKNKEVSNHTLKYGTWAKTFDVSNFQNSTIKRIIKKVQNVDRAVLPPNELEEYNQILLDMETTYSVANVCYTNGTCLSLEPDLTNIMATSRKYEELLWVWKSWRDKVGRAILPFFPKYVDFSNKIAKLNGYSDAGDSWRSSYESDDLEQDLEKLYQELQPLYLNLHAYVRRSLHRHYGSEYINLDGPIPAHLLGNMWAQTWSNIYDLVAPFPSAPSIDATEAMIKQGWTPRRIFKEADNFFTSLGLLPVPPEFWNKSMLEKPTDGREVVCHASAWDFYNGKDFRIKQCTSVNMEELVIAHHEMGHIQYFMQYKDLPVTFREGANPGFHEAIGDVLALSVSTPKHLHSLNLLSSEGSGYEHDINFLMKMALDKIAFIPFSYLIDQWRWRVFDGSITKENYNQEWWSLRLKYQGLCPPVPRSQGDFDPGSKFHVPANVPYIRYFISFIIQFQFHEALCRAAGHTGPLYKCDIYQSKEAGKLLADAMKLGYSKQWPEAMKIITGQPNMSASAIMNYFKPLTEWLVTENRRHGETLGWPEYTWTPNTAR
Procedure: ACE value in serum was determined by Hycor kit, rat serum were cultured in 37° C. of [^3H]-hippuryl-glycyl-glycine for 60 minutes. While [^3H]-hippuryl-glycyl-glycine contains three peptide. [^3H] hippuric acid was obtained when extracted of culture solution with ethyl acetate, the content be determined by spectrophotometer. The content in serum sample was as the control group after it was added with 10^−8M, 10^−7M, 10^−6M compounds, then dissolved in PBS.

α1-adrenoceptor (aorta) = experiment: α-adrenoceptor antagonism, isolated rat aorta, pA2 vs norepinephrine; parameters: species or system Wistar rat; details: Schild plot, mean ± SEM of six to eight experiments
Procedure: Vascular α-adrenoceptor blocking activity was evaluated in the Wistar rat aorta preparation. Isolated rat aorta preparations were mounted in organ bath and suspended in Krebs solution at 37° C. […] or 75 mM KCl was added to the bath medium after a control concentration-response curve to norepinephrine had been obtained. The tissue was exposed to test compounds for 30 min before rechallenging with norepinephrine. Inhibitions were expressed as percentages of the maximum contraction obtained by the challenge of the tissues with norepinephrine. The 70 mM NaCl on 75 mM KCl solution may to replace with equimolar KCl, if necessary.
The methods published by Huang Y C. et. al. in J Cardiovasc Pharmacol.34, pp.10-20 (1999) and Drug Devel Res. 47, 77-89 (1999). Through referenced and modified method to evaluate, test compounds whether have α1-adrenergic and sertoninergic effect.
Isolated Wistar rat aorta preparations were mounted in organ bath and suspended in Krebs solution (NaCl, 118 mM, KCl, 4.8 mM; CaCl,2.5 mM; MgSO4,1.2 mM; K2PO4,1.2 Mm; […] Mm; glucose, 11 mM) at 37° C. under 1 g resting tension.
Upon balancing for 60 minutes, 10^−10-10^−4 M norepinephrine is administered directly from low concentration to high using 0.5 log unit to gradually increase until the maximum reaction is reached, and this act as the control unit. Then different concentrations of the synthetic testing compounds, 10^−7 M, 10^−6 M, or 10^−5M, are used, and upon 30 minutes of reaction, norepinephrine is used again to complete the cumulative dose. The EC50 value of blocking […] may be obtained from observation of the suppressing effects caused by different concentrations of the synthetic testing compound.
The equation is as follows: […]

Structure (SMILES) | β2 pA2 value, Trachea [1] | Inhibitory activity of ACE, In Rat Serum ([2]; 10^−6M) [%] | Inhibitory activity of ACE, In Rat Serum ([2]; 10^−7M) [%] | Inhibitory activity of ACE, In Rat Serum ([2]; 10^−8M) [%] | α1 pA2 value, Aorta (α1-adrenoceptor (aorta))
CCOC(=O)C(CCc1ccccc1)NC(C)C(=O)N1CCCC1C(=O)OCc1ccc(OCC(O)CNC(C)(C)C)c(OC)c1 (stereo not drawn) [compound 7, Vanynolpril] | 5.64 | 83 | 74 | 35 | –
CCOC(=O)C(CCc1ccc(OCC(O)CNCCOc2ccccc2OC)cc1)NC(C)C(=O)N1CCCC1C(=O)O (mixture of isomers) [compound 6, Labetapril] | 5.43 | 81 | 67 | 28 | 6.93
